In patent US20210352900A1, “Method for Controlling PPO Resistant Weeds” (BASF SE, priority 2016, published 2021):

Tested on: Amaranthus tuberculatus (AMATU, tall waterhemp), PPO resistant biotype 2 containing the ΔG210 mutation (w.3)
Type: in vivo
Conditions: azafenidin: in comparison to sensitive biotypes

Row | SMILES | activity on / control of resistant weeds containing the ΔG210 mutation (w.3), in words
1 | CCc1ccc(COc2ccc(-n3c(=O)cc(C(F)(F)F)n(C)c3=O)cc2)c(OC(C)C(=O)OC)c1 (centres unmarked) [(I).1, benzfendizone] | very good activity
2 | C#CCOc1cc(-n2nc3n(c2=O)CCCC3)c(Cl)cc1Cl [azafenidin, reference compound] | much weaker control
